Data on seven compounds can be found in article PMC12196486, “Search for Antiviral Preparations in Series of New Derivatives of N-Substituted Piperidines” (Molecules, 2025).

The nature of series [1]: Cytotoxicity in vitro, MTT test on MDCK cell culture. To be noted: dog.
The subject of series [2] is influenza A/Swine/Iowa/30 (H1N1) virus. Type of series: cell-based. To be noted: for Antiviral activity relative to oseltamivir (Tamiflu): concentrations corresponding to 1/2 of CC50; for Efficacy relative to commercially available oseltamivir: at similar or lower concentrations.
Another series is described as follows: in vitro. To be noted: dog.

In brackets after ≈: the same amount, converted by molar mass. Entries after “also recorded” stand apart in the source; their conditions may differ. Where a name gives a salt, the structure may show the parent alone. Read-outs that look alike come from different tables or passages of the source.

With `CCCN1CCC(O)(C(=O)O)CC1` [3b, Hydrochloride of 1-propyl-4-carboxy-4-hydroxypiperidine], the CC50 at 72 h in series [1] came out at 9500 ± 364 µg/mL. Also, the “Titre in HAU” value in series [2] (0.15 mg/mL, PC titre 5.0 ± 0) was 5.0 ± 0 log2; in series [2] (0.30 mg/mL, PC titre 5.0 ± 0), 5.0 ± 0 log2; in series [2] (0.59 mg/mL, PC titre 5.0 ± 0), 5.0 ± 0 log2; in series [2] (1.19 mg/mL, PC titre 5.0 ± 0), 5.0 ± 0 log2; in series [2] (2.38 mg/mL, PC titre 5.0 ± 0), 4.4 ± 0.6 log2; in series [2] (4.75 mg/mL, PC titre 5.0 ± 0), 4.0 ± 0 log2. In series [2] (4.75 mg/mL (maximum tested concentration)), the “Reduction of virus replication” value was 1.0 log2. In series [2], the “Antiviral activity relative to oseltamivir (Tamiflu)” value is “slightly inferior; also recorded: significantly lower antiviral activity”.

`O=C(OC1(C(=O)O)CCN(Cc2ccccc2)CC1)C1CC1` [5c, Hydrochloride of 1-benzyl-4-cyclopropanoyloxy-piperidine-4-carboxylic acid] came in with a CC50 at 72 h in series [1] of 3700 ± 189 µg/mL. The “Titre in HAU” value was 5.0 ± 0 log2 in series [2] (0.058 mg/mL, PC titre 5.0 ± 0); 5.0 ± 0 log2 in series [2] (0.116 mg/mL, PC titre 5.0 ± 0); 5.0 ± 0 log2 in series [2] (0.231 mg/mL, PC titre 5.0 ± 0); 5.0 ± 0 log2 in series [2] (0.463 mg/mL, PC titre 5.0 ± 0); 4.4 ± 0.6 log2 in series [2] (0.925 mg/mL, PC titre 5.0 ± 0); 3.8 ± 1.1 log2 in series [2] (1.850 mg/mL, PC titre 5.0 ± 0). For the same compound, the “Suppression of virus replication compared to the control group” value in series [2] (1.85 mg/mL (maximum investigated concentration)) is recorded as 1.2 log2. In addition, the “Antiviral effect at the other concentrations tested” value in series [2] (concentrations below 1.85 mg/mL) was “No statistically significant antiviral effect”. For the same compound, in series [2] (concentrations equivalent to 1/2 CC50), the “Level of antiviral activity relative to rimantadine” value was “comparable to that of rimantadine”.

`O=C(OC1(C(=O)O)CCN(CCc2ccccc2)CC1)C1CC1` [5d, Hydrochloride of 1-(2-phenylethyl)-4-cyclopropanoyloxy-piperidine-4-carboxylic acid] returned a CC50 at 72 h in series [1] of 160 ± 6 µg/mL. The “Titre in HAU” value was determined as 6.0 ± 0 log2 in series [2] (0.0025 mg/mL, PC titre 6.0 ± 0); 6.0 ± 0 log2 in series [2] (0.0050 mg/mL, PC titre 6.0 ± 0); 6.0 ± 0 log2 in series [2] (0.0100 mg/mL, PC titre 6.0 ± 0); 6.0 ± 0 log2 in series [2] (0.0200 mg/mL, PC titre 6.0 ± 0); 4.8 ± 0.5 log2 in series [2] (0.0400 mg/mL, PC titre 6.0 ± 0); 4.0 ± 0 log2 in series [2] (0.0800 mg/mL, PC titre 6.0 ± 0). Besides, the entries for the “Reduction of virus replication” value in series [2] (0.04 mg/mL) and in series [2] (0.08 mg/mL) were 1.2 log2 and 2.0 log2, respectively. For the same compound, the “Antiviral activity relative to oseltamivir (Tamiflu)” value in series [2] is listed as “slightly inferior”.

`CC(N)C12CC3CC(CC(C3)C1)C2` (stereo not shown) [Rimantadine, reference compound] displayed a CC50 at 72 h in the series “in vitro” of 160 ± 11 µg/mL (≈ 892 µM). Besides, the “Titre in HAU” value in series [2] (0.003 mg/mL, PC titre 6.0 ± 0) is given as 4.2 ± 0.4 log2; in series [2] (0.005 mg/mL, PC titre 6.0 ± 0) it was 4.2 ± 0.4 log2; in series [2] (0.010 mg/mL, PC titre 6.0 ± 0), 4.2 ± 0.4 log2; in series [2] (0.020 mg/mL, PC titre 6.0 ± 0), 4.2 ± 0.4 log2; in series [2] (0.040 mg/mL, PC titre 6.0 ± 0), 4.2 ± 0.4 log2; in series [2] (0.080 mg/mL, PC titre 6.0 ± 0), 4.2 ± 0.4 log2.

In series [1], `CCOC(=O)C1=C[C@@H](OC(CC)CC)[C@H](NC(C)=O)[C@@H](N)C1` [Tamiflu, oseltamivir, reference compound] registered a CC50 at 72 h of 660 ± 91 µg/mL (≈ 2110 µM). Also, the “Titre in HAU” value in series [2] (0.01 mg/mL, PC titre 5.0 ± 0) is 4.0 ± 0 log2; in series [2] (0.02 mg/mL, PC titre 5.0 ± 0) it was 4.0 ± 0 log2; in series [2] (0.04 mg/mL, PC titre 5.0 ± 0), 3.0 ± 0 log2; in series [2] (0.08 mg/mL, PC titre 5.0 ± 0), 3.0 ± 0 log2; in series [2] (0.17 mg/mL, PC titre 5.0 ± 0) it was 2.4 ± 0.5 log2; in series [2] (0.33 mg/mL, PC titre 5.0 ± 0), 2.4 ± 0.5 log2. The “Reduction of viral load” value amounted to 1.0 log2 in series [2] (0.02 and 0.01 mg/mL); 2.0 log2 in series [2] (0.08 and 0.04 mg/mL). Besides, the “Reduction in the reproduction of 100 infectious doses of the virus” value in series [2] (0.33 and 0.17 mg/mL) was determined as 2.6 log2.

In turn, `O=C(OC1CCN(Cc2ccccc2)CC1)c1ccc(C(F)(F)F)cc1` [compound 8, Hydrochloride of 1-benzyl-4-trifluoromethylbenzoyloxy-piperidine] displayed a CC50 at 72 h in series [1] of 70 ± 5 µg/mL. Moreover, the “Titre in HAU” value in series [2] (0.0011 mg/mL, PC titre 6.0 ± 0) came to 6.0 ± 0 log2; in series [2] (0.0022 mg/mL, PC titre 6.0 ± 0) it was 6.0 ± 0 log2; in series [2] (0.0044 mg/mL, PC titre 6.0 ± 0), 6.0 ± 0 log2; in series [2] (0.0088 mg/mL, PC titre 6.0 ± 0), 5.0 ± 0 log2; in series [2] (0.0175 mg/mL, PC titre 6.0 ± 0), 5.0 ± 0 log2; in series [2] (0.0350 mg/mL, PC titre 6.0 ± 0), 4.0 ± 0 log2. Moreover, the “Reduction of viral load” value in series [2] (0.035 mg/mL) is on record as 2.0 log2; in series [2] (0.0175 and 0.0088 mg/mL), 1.0 log2. In addition, in series [2], the “Efficacy relative to commercially available oseltamivir” value is “comparable efficacy”. The “Antiviral activity relative to oseltamivir (Tamiflu)” value in series [2] is “slightly inferior”.

Take `O=C(ON=C1CCN(Cc2ccccc2)CC1)c1c(F)cccc1F` [compound 11, Hydrochloride of 1-benzyl-4-(2,6-difluoro-benzoyloxymino) piperidine]: the CC50 at 72 h in series [1] was determined as 130 ± 2 µg/mL. In addition, the “Titre in HAU” value in series [2] (0.0020 mg/mL, PC titre 6.0 ± 0) amounted to 6.0 ± 0 log2; in series [2] (0.0041 mg/mL, PC titre 6.0 ± 0), 6.0 ± 0 log2; in series [2] (0.0081 mg/mL, PC titre 6.0 ± 0), 6.0 ± 0 log2; in series [2] (0.0163 mg/mL, PC titre 6.0 ± 0) it was 6.0 ± 0 log2; in series [2] (0.0325 mg/mL, PC titre 6.0 ± 0) it was 4.0 ± 0 log2; in series [2] (0.0650 mg/mL, PC titre 6.0 ± 0), 4.0 ± 0 log2. Moreover, the “Inhibition of replication of 100 infectious doses compared to the control group” value in series [2] (0.0650 and 0.0325 mg/mL) is given as 2.0 log2. Further, the “Efficacy relative to commercially available oseltamivir” value in series [2] is “comparable efficacy”. Further, in series [2], the “Antiviral activity relative to oseltamivir (Tamiflu)” value is “slightly inferior”.
